Measured values as given in US20070178152A1, “Carboxyalkylcellulose esters for administration of poorly soluble pharmaceutically active agents” (priority 2005, published 2007).
Where “and” joins values, the source holds several entries; their conditions need not be identical. Equal entries are not always repeated.

How the values were obtained:
[1] = Determination of % crystallinity by X-ray; assay type: physicochemical
Experimental: Determination of % Crystallinity by X-ray.
All samples were run on a Scintag PAD V diffractometer using Cu K-alpha X-ray.
For each polymer or drug used in this study a neat sample was obtained. A known weight of each species was mixed with a know weight of corundum, Al2O3, diffraction standard. Each mixture was pelletized with a hydraulic press and the XRD pattern of the pellet was measured from 5 to 45 degree scattering angle. A diffraction response factor, R, was calculated for each species according to: R=wc/ws*ls/lc where wc id the weight fraction of corundum, ws is the weight fraction of the species of interest, lc is the net intensity of the major diffraction line of corrundum and is the net intensity of the major diffraction line of the drug or in the case of the polymers, the net intensity of the maximum of the amorphous scattering curve.
Samples were pelletized with a hydraulic press and the XRD pattern of the pellet was measured from 5 to 45 degree scattering angle. The net intensity of the maximum of the amorphous scatter from the polymer, lp, and the net intensity of the major diffraction line of the drug, ld, were determined from the resulting scattering curve. The wt % crystalline drug was calculated from: % crystalline drug=(ld/Rd)/(ld/Rd+lp/Rp)×100 where Rd is the response factor for the drug and Rp is the response factor for the polymer.

[2] = Dissolution of carbamazepine and carbamazepine solid dispersions in SIFsp, pH 6.8; assay type: physicochemical; settings: for % Drug Released / Total Drug Released: SIFsp pH 6.8, gelatin capsule; for Average % Released: carbamazepine
Experimental: All dissolution studies were performed on a Varian VK7025 Dissolution Apparatus equipped with a Varian VK8000 Fraction Collector
HPLC Methods for Evaluating Dissolution Aliquots:
Determination of Weight % Phenytoin, Carbamazepine, Glyburide, or Griseofulvin.
Mobile Phase: 55% acetonitrile/45% ammonium acetate buffer (2.6 g NH4OAc/L H2O with pH adjusted to pH˜5.25 with glacial acetic acid)
Column: Agilent Eclipse XDB-C8, 4.6 mm×150 mm×5 μm
Detection: UV 254 nm (UV 214 nm can also be used for phenytoin or carbamazepine, UV 291 nm can also be used for griseofulvin); typically five signals were selected from UV 214 nm, 222 nm, 254 nm, 287 nm, 291 nm, and/or 325 nm were collected for each sample.
Simulated Intestinal Fluid, without pancreatin, pH 6.8 (SIFsp, pH 6.8)—Added monobasic potassium phosphate (KH2PO4, 34 g) to a 4000-mL beaker. Added deionized/polished water (2000 mL) and mixed using a magnetic stir bar until the KH2PO4 is completely dissolved. Added 0.2 N sodium hydroxide (NaOH, 590 mL) and stirred. The pH was adjusted to pH 6.8±0.1 using 0.2 N NaOH. The sample was diluted with deionized/polished water to a final volume of 5000 mL.
The SIFsp media was heated to ˜45° C. in four 2000-mL Kimax bottles in an oven. The sample was degassed according to USP protocol by filtering through a 0.45 μm membrane filter (Pall, Supor-450, 0.45 μm, 90 mm, part # 60200, Lot # 43214) and stirring under vacuum for 5 minutes.
Dissolution Conditions #1.
Dissolution Conditions #2.
These Examples describe the dissolution of carbamazepine and carbamazepine solid dispersions by evaluating the samples described in Examples 91-99. SlFsp, pH 6.8 media preparation was described in the Materials and Methods section.
Samples were transferred into gelatin capsules (Capsugel, size OCS, Lot #624282) using a manual single capsule filler. The weight of each capsule and the amount of sample added are found in Table 17 (Capsule Description).

O=C1NC(=O)C(c2ccccc2)(c2ccccc2)N1 [Example 78, Phenytoin]
wt % Crystal (X-ray) ([1]; phenytoin/polymer solid dispersions and physical blends (Table 6)): 100 wt %

NC(=O)N1c2ccccc2C=Cc2ccccc21 [Example 95, Carbamazepine]
wt % Crystal (X-ray) ([1]; carbamazepine/CMCAB solid dispersions and physical blends (Table 8)): 100 wt % | % Drug Released ([2]; 20 min): 33.9384% and 38.8298% | Total Drug Released ([2]; 20 min): 9.4293 mg and 10.5423 mg | % Drug Released ([2]; 30 min): 44.1249% and 55.2412% | Total Drug Released ([2]; 30 min): 12.2594 mg and 14.9980 mg | % Drug Released ([2]; 60 min): 59.6056% and 68.7527% | Total Drug Released ([2]; 60 min): 16.5605 mg and 18.6664 mg | % Drug Released ([2]; 120 min): 68.4090% and 79.5856% | Total Drug Released ([2]; 120 min): 19.0064 mg and 21.6075 mg | % Drug Released ([2]; 180 min): 67.5738% and 72.0943% | Total Drug Released ([2]; 180 min): 18.7744 mg and 19.5736 mg | % Drug Released ([2]; 240 min): 67.7652% and 72.6520% | Total Drug Released ([2]; 240 min): 18.8275 mg and 19.7250 mg | % Drug Released ([2]; 300 min): 67.6548% and 72.9162% | Total Drug Released ([2]; 300 min): 18.7969 mg and 19.7968 mg | % Drug Released ([2]; 360 min): 72.4305% and 71.9068% | Total Drug Released ([2]; 360 min): 20.1237 mg and 19.5227 mg | % Drug Released ([2]; 450 min): 67.4606% and 70.7122% | Total Drug Released ([2]; 450 min): 18.7429 mg and 19.1984 mg | Average % Released ([2]; SIFsp pH 6.8, 10 min): 6.7739% | Average % Released ([2]; SIFsp pH 6.8, 20 min): 36.3841% | Average % Released ([2]; SIFsp pH 6.8, 30 min): 49.6830% | Average % Released ([2]; SIFsp pH 6.8, 60 min): 64.1792% | Average % Released ([2]; SIFsp pH 6.8, 120 min): 73.9973% | Average % Released ([2]; SIFsp pH 6.8, 180 min): 69.8341% | Average % Released ([2]; SIFsp pH 6.8, 240 min): 70.2086% | Average % Released ([2]; SIFsp pH 6.8, 300 min): 70.2855% | Average % Released ([2]; SIFsp pH 6.8, 360 min): 72.1686% | Average % Released ([2]; SIFsp pH 6.8, 450 min): 69.0864%

COc1ccc(Cl)cc1C(=O)NCCc1ccc(S(=O)(=O)NC(=O)NC2CCCCC2)cc1 [Example 113, Glyburide]
wt % Crystal (X-ray) ([1]; glyburide/CMCAB solid dispersions and physical blends (Table 10)): 100 wt %
